# Assay results taken from patent US12398101B2, “Herbicidal 2-azaspiro[3-5]nonane compounds” (SYNGENTA CROP PROTECTION AG, priority 2018, dated 2025).
# Key:
# Type in all cases: in vivo
# Conditions in all cases: 250 g/h, evaluated after 13 days
# Avena fatua (AVEFA) [1] = test: Glasshouse herbicide test, pre-emergence application
# Protocol: (§1) Seeds of a variety of test species are sown in standard soil in pots (Lolium perenne (LOLPE), Setaria faberi (SETFA), Echinochloa crus-galli (ECHCG), Avena fatua (AVEFA)). After cultivation for one day (pre-emergence) or after 8 days cultivation (post-emergence) under controlled conditions in a glasshouse (at 24/16° C., day/night; 14 hours light; 65% humidity), the plants are sprayed with an aqueous spray solution derived from the formulation of the technical active ingredient in acetone/water (50:50) solution containing 0.5% Tween 20 (polyoxyethelyene sorbitan monolaurate, CAS RN 9005-64-5). Compounds are applied at 250 g/h. The test plants are then grown in a glasshouse under controlled conditions in a glasshouse (at 24/16° C., day/night; 14 hours light; 65% humidity) and watered twice daily. After 13 days for pre and post-emergence, the test is evaluated for the percentage damage caused to the plant. The biological activities are shown in the following table on a five point scale (5=80-100%; 4=60-79%; 3=40-59%; 2=20-39%; 1=0-19%).
# [2] = test system: Echinochloa crus-galli (ECHCG); test: as above
# Protocol: as §1
# Lolium perenne (LOLPE) [3] = test: as above
# Protocol: as §1
# Setaria faberi (SETFA) [4] = test: as above
# Protocol: as §1
# Avena fatua (AVEFA) [5] = test: Glasshouse herbicide test, post-emergence application
# Protocol: as §1
# [6] = test system: Echinochloa crus-galli (ECHCG); test: as above
# Protocol: as §1
# Lolium perenne (LOLPE) [7] = test: as above
# Protocol: as §1
# Setaria faberi (SETFA) [8] = test: as above
# Protocol: as §1
Compound,"percentage damage caused to the plant, five point scale, AVEFA (Avena fatua (AVEFA) [1])","percentage damage caused to the plant, five point scale, ECHCG [2]","percentage damage caused to the plant, five point scale, LOLPE (Lolium perenne (LOLPE) [3])","percentage damage caused to the plant, five point scale, SETFA (Setaria faberi (SETFA) [4])","percentage damage caused to the plant, five point scale, AVEFA (Avena fatua (AVEFA) [5])","percentage damage caused to the plant, five point scale, ECHCG [6]","percentage damage caused to the plant, five point scale, LOLPE (Lolium perenne (LOLPE) [7])","percentage damage caused to the plant, five point scale, SETFA (Setaria faberi (SETFA) [8])"
CC#Cc1cc(C)c(C2C(=O)CC3(CC2=O)CN(C(=O)C(F)F)C3)c(C)c1 [Compound 1.009],5 (5=80-100%),5 (5=80-100%),5 (5=80-100%),5 (5=80-100%),5 (5=80-100%),5 (5=80-100%),5 (5=80-100%),5 (5=80-100%)
CC#Cc1cc(C)c(C2C(=O)CC3(CC2=O)CN(C(=O)C(C)(C)C)C3)c(C)c1 [Compound 1.010],5 (5=80-100%),5 (5=80-100%),5 (5=80-100%),5 (5=80-100%),5 (5=80-100%),5 (5=80-100%),5 (5=80-100%),5 (5=80-100%)
CC#Cc1cc(C)c(C2C(=O)CC3(CC2=O)CN(C(=O)NC(=O)c2ccccn2)C3)c(C)c1 [Compound 1.011],1 (1=0-19%),2 (2=20-39%),2 (2=20-39%),3 (3=40-59%),3 (3=40-59%),3 (3=40-59%),3 (3=40-59%),5 (5=80-100%)
CC#Cc1cc(C)c(C2C(=O)CC3(CC2=O)CN(C(=O)CC#N)C3)c(C)c1 [Compound 1.012],5 (5=80-100%),5 (5=80-100%),5 (5=80-100%),5 (5=80-100%),4 (4=60-79%),5 (5=80-100%),5 (5=80-100%),5 (5=80-100%)
CC#Cc1cc(C)c(C2C(=O)CC3(CC2=O)CN(C(C)=O)C3)c(OC)c1 [Compound 1.013],5 (5=80-100%),5 (5=80-100%),5 (5=80-100%),5 (5=80-100%),5 (5=80-100%),5 (5=80-100%),5 (5=80-100%),5 (5=80-100%)
CC#Cc1cc(C)c(C2C(=O)CC3(CC2=O)CN(S(=O)(=O)CC)C3)c(OC)c1 [Compound 1.014],5 (5=80-100%),5 (5=80-100%),5 (5=80-100%),5 (5=80-100%),5 (5=80-100%),5 (5=80-100%),5 (5=80-100%),5 (5=80-100%)
CC#Cc1cc(C)c(C2C(=O)CC3(CC2=O)CN(C(=O)c2ccccc2)C3)c(OC)c1 [Compound 1.015],5 (5=80-100%),5 (5=80-100%),5 (5=80-100%),5 (5=80-100%),5 (5=80-100%),5 (5=80-100%),5 (5=80-100%),5 (5=80-100%)
CC#Cc1cc(C)c(C2C(=O)CC3(CC2=O)CN(C(=O)c2ccccn2)C3)c(OC)c1 [Compound 1.016],5 (5=80-100%),5 (5=80-100%),5 (5=80-100%),5 (5=80-100%),5 (5=80-100%),5 (5=80-100%),5 (5=80-100%),5 (5=80-100%)
